Measurements as given in patent US10941379B2, “Microbial system for biosynthesis of natural and engineered products coupled to in situ extraction in supercritical CO2” (Massachusetts Institute of Technology, priority 2016, dated 2021).

Assays:
B. megaterium SR7 [1] = test: Biolog GenIII sole carbon source growth; format: cell-based, Bacillus megaterium; details: for Growth on Biolog sole carbon source, SR7: no metals added, Table 10; for Growth in carbon source Biolog plate, +Metals: trace metals-amended plate; for Growth in carbon source Biolog plate, +Metals / Growth in carbon source Biolog plate, I / Growth in carbon source Biolog plate, II: Table 11; for Growth in carbon source Biolog plate, I: unamended plate trial I; for Growth in carbon source Biolog plate, II: unamended plate trial II
Description: (§1) Plates were incubated at 37° C. on a plate shaker at 200 rpm and assayed for growth using NADH-dependent colorimetric changes measured by OD490 on a microplate reader (BioTek Synergy 2; BioTek; Winooski, Vt.).

B. megaterium QM B1551 = test: Biolog GenIII sole carbon source growth; format: cell-based, Bacillus megaterium; details: no metals added; Table 10
Description: as §1

B. megaterium DSM319 = test: Biolog GenIII sole carbon source growth; format: cell-based, Bacillus megaterium; details: no metals added; Table 10
Description: as §1

B. megaterium SR7 [2] = details: LB, aerobic
Description: (§2) To help guide optimization of growth conditions for strain SR7, physiological tests were conducted under aerobic conditions. To determine tolerance for pH, salinity and bicarbonate, high throughput culturing was done in 96 well plates and scored for growth by OD600 using a microplate reader (BioTek Synergy 2; BioTek; Winooski, Vt.). 200 uL LB solutions/well were inoculated in triplicate with 10^4 spores/ml (based on SR7 spore stock filter counts) and incubated on a plate rocker at 37° C. with unamended positive and cell-free negative LB controls. Tests for pH tolerance (pH 2-10) were conducted in LB medium amended with HCl or NaOH. The effect of salinity and bicarbonate on growth was determined by adding NaCl (1-10%) and NaHCO3 (0.1-0.5M), respectively, to LB media. Optimal SR7 growth temperature was tested by inoculating 10^4 spores/ml in 5 ml of LB in triplicate at temperatures of 9-55° C. Cultures and cell-free negative controls were incubated without shaking, with subsamples taken for periodic OD600 measurements. SR7 antibiotic sensitivity was determined by supplementing 5 ml LB with ampicillin (5-50 μg/ml), chloramphenicol (3.5-35 μg/ml), kanamycin (5-50 μg/ml), spectinomycin (10-100 μg/ml), streptomycin (10-100 μg/ml), or tetracycline (1.5-15 μg/ml).

B. megaterium SR7 [3] = test: SR7 antibiotic sensitivity in LB (OD600 vs unamended control); format: cell-based, Bacillus megaterium; details: for % Control: (OD600 AB/OD600 Control)*100 in LB, average n = 2, 24 hours, 37° C.; for Sensitivity: LB
Description: as §2

[4] = assayed 0, 5, 10, 50, 80, 100 g/L over 36 h
[5] = assayed 0, 100, 300, 500 mM over 36 h

## CC(O)CC(=O)O (racemic) [β-Hydroxy-D,L-Butyric Acid]
B. megaterium SR7 [1]
  Growth on Biolog sole carbon source, SR7: +
  Growth in carbon source Biolog plate, +Metals: +
  Growth in carbon source Biolog plate, I: +
  Growth in carbon source Biolog plate, II: +
B. megaterium QM B1551
  Growth on Biolog sole carbon source, QM B1551: +++
B. megaterium DSM319
  Growth on Biolog sole carbon source, DSM319: +

## O=C(O)CC(Br)C(=O)O (stereo not drawn) [Bromo-Succinic Acid]
B. megaterium SR7 [1]
  Growth on Biolog sole carbon source, SR7: +
  Growth in carbon source Biolog plate, +Metals: +
  Growth in carbon source Biolog plate, I: +
  Growth in carbon source Biolog plate, II: +
B. megaterium QM B1551
  Growth on Biolog sole carbon source, QM B1551: +
B. megaterium DSM319
  Growth on Biolog sole carbon source, DSM319: +++

## O=C(O)[C@H](O)[C@@H](O)[C@H](O)[C@H](O)CO [D-Gluconic Acid]
B. megaterium SR7 [1]
  Growth on Biolog sole carbon source, SR7: +
  Growth in carbon source Biolog plate, +Metals: +++
  Growth in carbon source Biolog plate, I: +
  Growth in carbon source Biolog plate, II: +
B. megaterium QM B1551
  Growth on Biolog sole carbon source, QM B1551: +
B. megaterium DSM319
  Growth on Biolog sole carbon source, DSM319: +++

## OC[C@@H](O)[C@@H](O)[C@H](O)[C@H](O)CO [D-Mannitol]
B. megaterium SR7 [1]
  Growth on Biolog sole carbon source, SR7: +
  Growth in carbon source Biolog plate, +Metals: +
  Growth in carbon source Biolog plate, I: +
  Growth in carbon source Biolog plate, II: +
B. megaterium QM B1551
  Growth on Biolog sole carbon source, QM B1551: +
B. megaterium DSM319
  Growth on Biolog sole carbon source, DSM319: +++

## O=C(O)[C@@H](O)[C@@H](O)[C@H](O)[C@@H](O)C(=O)O [D-Saccharic Acid]
B. megaterium SR7 [1]
  Growth on Biolog sole carbon source, SR7: −
  Growth in carbon source Biolog plate, +Metals: −
  Growth in carbon source Biolog plate, I: −
  Growth in carbon source Biolog plate, II: +
B. megaterium QM B1551
  Growth on Biolog sole carbon source, QM B1551: +++
B. megaterium DSM319
  Growth on Biolog sole carbon source, DSM319: −

## N[C@@H](CC(=O)O)C(=O)O [L-Aspartic Acid]
B. megaterium SR7 [1]
  Growth on Biolog sole carbon source, SR7: +
  Growth in carbon source Biolog plate, +Metals: +++
  Growth in carbon source Biolog plate, I: +
  Growth in carbon source Biolog plate, II: +
B. megaterium QM B1551
  Growth on Biolog sole carbon source, QM B1551: +
B. megaterium DSM319
  Growth on Biolog sole carbon source, DSM319: +++

## N[C@@H](CCC(=O)O)C(=O)O [L-Glutamic Acid]
B. megaterium SR7 [1]
  Growth on Biolog sole carbon source, SR7: +
  Growth in carbon source Biolog plate, +Metals: +++
  Growth in carbon source Biolog plate, I: +
  Growth in carbon source Biolog plate, II: +
B. megaterium QM B1551
  Growth on Biolog sole carbon source, QM B1551: +++
B. megaterium DSM319
  Growth on Biolog sole carbon source, DSM319: +++

## N[C@@H](Cc1c[nH]cn1)C(=O)O [L-Histidine]
B. megaterium SR7 [1]
  Growth on Biolog sole carbon source, SR7: +
  Growth in carbon source Biolog plate, +Metals: +
  Growth in carbon source Biolog plate, I: +
  Growth in carbon source Biolog plate, II: +
B. megaterium QM B1551
  Growth on Biolog sole carbon source, QM B1551: +
B. megaterium DSM319
  Growth on Biolog sole carbon source, DSM319: +++

## C[C@H](O)C(=O)O [L-Lactic Acid]
B. megaterium SR7 [1]
  Growth on Biolog sole carbon source, SR7: +
  Growth in carbon source Biolog plate, +Metals: +
  Growth in carbon source Biolog plate, I: +
  Growth in carbon source Biolog plate, II: +
B. megaterium QM B1551
  Growth on Biolog sole carbon source, QM B1551: +++
B. megaterium DSM319
  Growth on Biolog sole carbon source, DSM319: +++

## O=C(O)C[C@H](O)C(=O)O [L-Malic Acid]
B. megaterium SR7 [1]
  Growth on Biolog sole carbon source, SR7: +++
  Growth in carbon source Biolog plate, +Metals: +
  Growth in carbon source Biolog plate, II: +++
B. megaterium QM B1551
  Growth on Biolog sole carbon source, QM B1551: +++
B. megaterium DSM319
  Growth on Biolog sole carbon source, DSM319: +++

## CC(=O)N[C@H]1C(O)O[C@H](CO)[C@@H](O)[C@@H]1O (stereo partly drawn) [N-Acetyl-D-Glucosamine]
B. megaterium SR7 [1]
  Growth on Biolog sole carbon source, SR7: +
  Growth in carbon source Biolog plate, I: +
  Growth in carbon source Biolog plate, II: +
B. megaterium QM B1551
  Growth on Biolog sole carbon source, QM B1551: +
B. megaterium DSM319
  Growth on Biolog sole carbon source, DSM319: +++

## [Cl-].[Na+] [NaCl]
B. megaterium SR7 [2]; [4]
  Optimal for SR7 growth, [NaCl]: 0 to 10 g/L
  Range of viable SR7 growth, [NaCl]: 0 to 100 g/L

## O=C(O)O [NaHCO3]
B. megaterium SR7 [2]; [5]
  Optimal for SR7 growth, NaHCO3: 0 to 100 mM
  Range of viable SR7 growth, NaHCO3: 0 to 300 mM

## CN[C@@H]1[C@H](O)[C@H](NC)[C@H]2O[C@@]3(O)C(=O)C[C@@H](C)O[C@H]3O[C@@H]2[C@H]1O [Spectinomycin]
B. megaterium SR7 [3]; 100 ug/mL
  % Control: 47%
  Sensitivity: S/R
B. megaterium SR7 [3]; result in words, summary of Table 9
  SR7 sensitivity to antibiotics: intermediate sensitivity

## [H]/N=C(/N)N[C@H]1[C@H](O)[C@@H](O)[C@H](O[C@@H]2O[C@@H](C)[C@](O)(C=O)[C@H]2O[C@@H]2O[C@@H](CO)[C@H](O)[C@@H](O)[C@@H]2NC)[C@@H](N/C(N)=N\[H])[C@@H]1O [Streptomycin]
B. megaterium SR7 [3]; 10 ug/mL
  % Control: 10%
  Sensitivity: S

## OC[C@H]1O[C@@](CO)(O[C@H]2O[C@H](CO)[C@@H](O)[C@H](O)[C@H]2O)[C@@H](O)[C@@H]1O [Sucrose]
B. megaterium SR7 [1]
  Growth on Biolog sole carbon source, SR7: −
  Growth in carbon source Biolog plate, +Metals: +
  Growth in carbon source Biolog plate, I: −
  Growth in carbon source Biolog plate, II: +
B. megaterium QM B1551
  Growth on Biolog sole carbon source, QM B1551: +
B. megaterium DSM319
  Growth on Biolog sole carbon source, DSM319: +++

## CN(C)[C@@H]1C(O)=C(C(N)=O)C(=O)[C@@]2(O)C(O)=C3C(=O)c4c(O)cccc4[C@@](C)(O)[C@H]3C[C@@H]12 [Tetracycline]
B. megaterium SR7 [3]; 1.5 ug/mL
  % Control: 11%
  Sensitivity: S

## OC[C@H]1O[C@H](O)[C@H](O)[C@@H](O)[C@@H]1O [α-D-Glucose]
B. megaterium SR7 [1]
  Growth on Biolog sole carbon source, SR7: +
  Growth in carbon source Biolog plate, +Metals: +++
  Growth in carbon source Biolog plate, I: +
  Growth in carbon source Biolog plate, II: +
B. megaterium QM B1551
  Growth on Biolog sole carbon source, QM B1551: +
B. megaterium DSM319
  Growth on Biolog sole carbon source, DSM319: +++
